Data published in the NIST ThermoML archive (doi:10.1021/je700406p).

Experiment: wn = mass fraction of the nth substance listed
Settings: Liquid, Vibrating tube method

CC(C)(N)CO [2-amino-2-methylpropan-1-ol] + O
Settings	mass density [kg/m3]
333.05 K, 14990 kPa, w1 = 0.4002	976.2
333.05 K, 15984 kPa, w1 = 0.4002	976.6
333.05 K, 16990 kPa, w1 = 0.4002	977
333.05 K, 18003 kPa, w1 = 0.4002	977.4
333.05 K, 18986 kPa, w1 = 0.4002	977.8
333.05 K, 19988 kPa, w1 = 0.4002	978.2
333.05 K, 21502 kPa, w1 = 0.4002	978.8
342.91 K, 1020 kPa, w1 = 0.2821	969
342.91 K, 2011 kPa, w1 = 0.2821	969.5
342.91 K, 3009 kPa, w1 = 0.2821	969.9
342.91 K, 4010 kPa, w1 = 0.2821	970.3
342.91 K, 4994 kPa, w1 = 0.2821	970.8
342.91 K, 5994 kPa, w1 = 0.2821	971.2
342.91 K, 7035 kPa, w1 = 0.2821	971.6
342.91 K, 7995 kPa, w1 = 0.2821	972
342.91 K, 8990 kPa, w1 = 0.2821	972.4
342.91 K, 9998 kPa, w1 = 0.2821	972.9
342.91 K, 10992 kPa, w1 = 0.2821	973.3
342.91 K, 11994 kPa, w1 = 0.2821	973.7
342.91 K, 12992 kPa, w1 = 0.2821	974.1
342.91 K, 13990 kPa, w1 = 0.2821	974.5
342.91 K, 14992 kPa, w1 = 0.2821	974.9
342.91 K, 15993 kPa, w1 = 0.2821	975.4
342.91 K, 16987 kPa, w1 = 0.2821	975.8
342.91 K, 17985 kPa, w1 = 0.2821	976.2
342.91 K, 18987 kPa, w1 = 0.2821	976.6
342.91 K, 19984 kPa, w1 = 0.2821	977
342.91 K, 20986 kPa, w1 = 0.2821	977.4
342.92 K, 509 kPa, w1 = 0.1997	971.6
342.92 K, 1001 kPa, w1 = 0.1997	971.8
342.92 K, 1008 kPa, w1 = 0.4976	953.4
342.92 K, 2000 kPa, w1 = 0.1997	972.2
342.92 K, 2004 kPa, w1 = 0.4976	953.8
342.92 K, 3000 kPa, w1 = 0.1997	972.7
342.92 K, 3006 kPa, w1 = 0.4976	954.3
342.92 K, 4000 kPa, w1 = 0.1997	973.1
342.92 K, 4000 kPa, w1 = 0.4976	954.8
342.92 K, 4997 kPa, w1 = 0.4976	955.3
342.92 K, 5000 kPa, w1 = 0.1997	973.6
342.92 K, 5996 kPa, w1 = 0.4976	955.7
342.92 K, 6000 kPa, w1 = 0.1997	974
342.92 K, 6996 kPa, w1 = 0.4976	956.2
342.92 K, 7001 kPa, w1 = 0.1997	974.4
342.92 K, 7993 kPa, w1 = 0.4976	956.7
342.92 K, 8000 kPa, w1 = 0.1997	974.8
342.92 K, 8988 kPa, w1 = 0.4976	957.2
342.92 K, 9009 kPa, w1 = 0.1997	975.2
342.92 K, 9983 kPa, w1 = 0.4976	957.6
342.92 K, 10002 kPa, w1 = 0.1997	975.6
342.92 K, 10990 kPa, w1 = 0.4976	958.1
342.92 K, 11001 kPa, w1 = 0.1997	976
342.92 K, 12000 kPa, w1 = 0.1997	976.5
342.92 K, 12003 kPa, w1 = 0.4976	958.5
342.92 K, 12992 kPa, w1 = 0.4976	958.9
342.92 K, 13000 kPa, w1 = 0.1997	976.9
342.92 K, 13996 kPa, w1 = 0.4976	959.4
342.92 K, 14000 kPa, w1 = 0.1997	977.3
342.92 K, 14988 kPa, w1 = 0.4976	959.9
342.92 K, 15002 kPa, w1 = 0.1997	977.7
342.92 K, 15995 kPa, w1 = 0.4976	960.3
342.92 K, 16002 kPa, w1 = 0.1997	978.2
342.92 K, 16984 kPa, w1 = 0.4976	960.8
342.92 K, 17001 kPa, w1 = 0.1997	978.6
342.92 K, 17995 kPa, w1 = 0.4976	961.2
342.92 K, 18002 kPa, w1 = 0.1997	979
342.92 K, 18994 kPa, w1 = 0.4976	961.7
342.92 K, 18999 kPa, w1 = 0.1997	979.2
342.92 K, 19993 kPa, w1 = 0.4976	962.1
342.92 K, 20029 kPa, w1 = 0.1997	979.8
342.92 K, 21004 kPa, w1 = 0.1997	980.2
342.92 K, 21021 kPa, w1 = 0.4976	962.5
342.92 K, 22004 kPa, w1 = 0.1997	980.6
342.92 K, 23001 kPa, w1 = 0.1997	981
342.92 K, 24005 kPa, w1 = 0.1997	981.5
342.93 K, 1004 kPa, w1 = 0.4002	962.4
342.93 K, 2006 kPa, w1 = 0.4002	962.8
342.93 K, 3009 kPa, w1 = 0.4002	963.3
342.93 K, 4013 kPa, w1 = 0.4002	963.7
342.93 K, 4998 kPa, w1 = 0.4002	964.2
342.93 K, 5995 kPa, w1 = 0.4002	964.6
342.93 K, 6996 kPa, w1 = 0.4002	965
342.93 K, 7995 kPa, w1 = 0.4002	965.5
342.93 K, 8994 kPa, w1 = 0.4002	965.9
342.93 K, 10004 kPa, w1 = 0.4002	966.3
342.93 K, 10993 kPa, w1 = 0.4002	966.8
342.93 K, 12000 kPa, w1 = 0.4002	967.2
342.93 K, 12990 kPa, w1 = 0.4002	967.6
342.93 K, 13993 kPa, w1 = 0.4002	968
342.93 K, 14985 kPa, w1 = 0.4002	968.5
342.93 K, 15999 kPa, w1 = 0.4002	968.9
342.93 K, 16987 kPa, w1 = 0.4002	969.3
342.93 K, 17994 kPa, w1 = 0.4002	969.8
342.93 K, 18984 kPa, w1 = 0.4002	970.2
342.93 K, 19987 kPa, w1 = 0.4002	970.6
342.93 K, 20996 kPa, w1 = 0.4002	971
352.84 K, 1007 kPa, w1 = 0.4002	954.4
352.84 K, 2012 kPa, w1 = 0.4002	954.9
352.84 K, 3000 kPa, w1 = 0.4002	955.3
352.84 K, 4011 kPa, w1 = 0.4002	955.8
352.84 K, 5007 kPa, w1 = 0.4002	956.3
352.84 K, 6009 kPa, w1 = 0.4002	956.7
352.84 K, 7008 kPa, w1 = 0.4002	957.2
352.84 K, 8014 kPa, w1 = 0.4002	957.6
352.84 K, 8988 kPa, w1 = 0.4002	958.1
352.84 K, 9986 kPa, w1 = 0.4002	958.5
352.84 K, 11001 kPa, w1 = 0.4002	959
352.84 K, 12004 kPa, w1 = 0.4002	959.5
352.84 K, 12991 kPa, w1 = 0.4002	959.8
352.84 K, 13986 kPa, w1 = 0.4002	960.3
352.84 K, 14991 kPa, w1 = 0.4002	960.8
352.84 K, 15997 kPa, w1 = 0.4002	961.2
352.84 K, 16988 kPa, w1 = 0.4002	961.6
352.84 K, 17995 kPa, w1 = 0.4002	962
352.84 K, 18987 kPa, w1 = 0.4002	962.5
352.84 K, 19995 kPa, w1 = 0.4002	962.9
352.84 K, 20986 kPa, w1 = 0.4002	963.3
352.85 K, 997 kPa, w1 = 0.2821	961.9
352.85 K, 2011 kPa, w1 = 0.2821	962.4
352.85 K, 2994 kPa, w1 = 0.2821	962.8
352.85 K, 4000 kPa, w1 = 0.2821	963.2
352.85 K, 5006 kPa, w1 = 0.2821	963.7
352.85 K, 6000 kPa, w1 = 0.2821	964.1
352.85 K, 6999 kPa, w1 = 0.2821	964.5
352.85 K, 7996 kPa, w1 = 0.2821	965
352.85 K, 8992 kPa, w1 = 0.2821	965.4
352.85 K, 9994 kPa, w1 = 0.2821	965.8
352.85 K, 10987 kPa, w1 = 0.2821	966.2
352.85 K, 12010 kPa, w1 = 0.2821	966.7
